In US20240262848A1, “HETEROCYCLIC COMPOUNDS, COMPOSITIONS THEREOF, AND METHODS OF TREATMENT THEREWITH” (BeiGene, Ltd., priority 2022, published 2024):

Columns and labels:
[1] = system: pERK1/2(THR202/TYR204) level in AsPC-1 cell line; experiment: KRAS G12D pERK assay in AsPC-1 cells (HTRF); type: cell-based; settings: Homo sapiens, ASPC1, Table 5, 2 h compound treatment
Description: AsPC-1 cell line was used in this study. Cells were maintained in RPMI-1640 supplemented with 10% fetal bovine serum (Thermo Fisher), 50 units/ml, penicillin and streptomycin (Thermo Fisher) and kept at 37° C. in a humidified atmosphere of 5% CO2 in air. Cells were reinstated from frozen stocks that were laid down within 30 passages from the original cells purchased. 30000 cells per well were seeded into a 96-well plate and incubated overnight. Cells were treated with a 10-point dilution series. The final compound concentration is from 0 to 10 μM. After 2 h compound treatment, cells were lysed, and the pERK1/2(THR202/TYR204) level in the cell lysates was detected by HTRF kit (Cisbio). In brief, a total of 16 μL of cell lysate from each well of a 96-well plate was transferred to a 384-well white assay plate. Lysate from each well was incubated with 2 μL of Eu3+-cryptate (donor) labeled anti-phospho-ERK1/2 and 2 μL of D2 (acceptor) labeled anti-phospho-ERK1/2 antibodies (Cisbio) overnight in dark at room temperature. When the donor and acceptor are in close proximity, excitation of the donor with laser triggers a Fluorescence Resonance Energy Transfer (FRET) towards the acceptor, which in turn fluoresces at 655 nm wavelength. FRET signals were measured using a PHERAstar FSX reader (BMG Labtech). IC50 determination was performed by fitting the curve of percent inhibition versus the log of the inhibitor concentration using Dotmatics.

[2] = target: GST-tagged GDP-loaded KRAS G12D (amin acids 1-188) (Homo sapiens, UniProt P01116, G12D); experiment: KRAS G12D probe displacement assay (TR-FRET); type: binding; settings: Table 5; KRAS G12D 0.5 nM, biotinylated probe 2 4 nM
Description: Plates are incubated at 24° C. for 1 hr.

Chain of GST-tagged GDP-loaded KRAS G12D (amin acids 1-188) (P01116 1-188 isoform P01116-2 G12D): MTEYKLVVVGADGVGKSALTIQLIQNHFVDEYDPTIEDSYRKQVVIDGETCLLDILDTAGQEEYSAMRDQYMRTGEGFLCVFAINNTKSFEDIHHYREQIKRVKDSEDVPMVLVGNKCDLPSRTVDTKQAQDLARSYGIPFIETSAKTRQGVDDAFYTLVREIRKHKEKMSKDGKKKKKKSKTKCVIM

SMILES | IC50 [1] [nM] | IC50 [2] [nM]
CN(C)CCN1c2nc(OC[C@@]34CCCN3C[C@H](F)C4)nc3c(F)c(-c4cc(N)cc(Cl)c4C(F)(F)F)nc(c23)OCCC12COC2 [Example 44, 3-chloro-5-(11-(2-(dimethylamino)ethyl)-4-fluoro-2-(((2R,7aS)-2-fluorotetrahydro-1H-pyrrolizin-7a(5H)-yl)methoxy)-8,9-dihydro-11H-7-oxa-1,3,6,11-tetraazaspiro[cycloocta[de]naphthalene-10,3′-oxetan]-1(11a), 2,3a, 4,6-pentaen-5-yl)-4-(trifluoromethyl)aniline] | 184 | 0.65
CNCC(C)N1c2nc(OC[C@@]34CCCN3C[C@H](F)C4)nc3c(F)c(-c4cc(N)cc(Cl)c4C(F)(F)F)nc(c23)OCC12CCC2 (stereo partly drawn) [Example 38, 3-chloro-5-(4′-fluoro-2′-(((2R,7aS)-2-fluorotetrahydro-1H-pyrrolizin-7a(5H)-yl)methoxy)-10′-(1-(methylamino)propan-2-yl)-8′H, 10′H-7′-oxa-1′,3′,6′,10′-tetraazaspiro[cyclobutane-1,9′-cyclohepta[de]naphthalen]-1′(10a′), 2′,3a′, 3 al′(6a′), 5′-pentaen-5′-yl)-4-(trifluoromethyl)aniline] | 102 | 0.38
CNCCN1c2nc(OC[C@@]34CCCN3C[C@H](F)C4)nc3c(F)c(-c4cc(N)cc(Cl)c4C(F)(F)F)nc(c23)O[C@H]2CCCC[C@@H]21 [Example 48, 3-chloro-5-((7aS,11aS)-4-fluoro-2-(((2R,7aS)-2-fluorotetrahydro-1H-pyrrolizin-7a(5H)-yl)methoxy)-12-(2-(methylamino)ethyl)-7a, 8,10,11,11a, 12-hexahydro-9H-7-oxa-1,3,6,12-tetraazapleiaden-5-yl)-4-(trifluoromethyl)aniline] | 3380 | 20
CNCCN1c2nc(OC[C@@]34CCCN3C[C@H](F)C4)nc3c(F)c(-c4cc(N)cc(Cl)c4C(F)(F)F)nc(c23)OCCC1C (stereo partly drawn) [Example 20, 3-chloro-5-(4-fluoro-2-(((2R,7aS)-2-fluorotetrahydro-1H-pyrrolizin-7a(5H)-yl)methoxy)-10-methyl-11-(2-(methylamino)ethyl)-8,9,10,11-tetrahydro-7-oxa-1,3,6,11-tetraazacycloocta[de]naphthalen-5-yl)-4-(trifluoromethyl)aniline] | 1010 | 0.43
CNCCN1c2nc(OC[C@@]34CCCN3C[C@H](F)C4)nc3c(F)c(-c4cc(N)cc(Cl)c4C(F)(F)F)nc(c23)OCC12CCC2 [Example 36, 3-chloro-5-(4′-fluoro-2′-(((2R,7aS)-2-fluorotetrahydro-1H-pyrrolizin-7a(5H)-yl)methoxy)-10′-(2-(methylamino)ethyl)-8′H, 10′H-7′-oxa-1′,3′,6′,10′-tetraazaspiro[cyclobutane-1,9′-cyclohepta[de]naphthalen]-1′(10a′), 2′0.3a′, 3 al′(6a′), 5′-pentaen-5′-yl)-4-(trifluoromethyl)aniline] | 2160 | 1.1
CNCCN1c2nc(OC[C@@]34CCCN3C[C@H](F)C4)nc3c(F)c(-c4cc(N)cc(Cl)c4C(F)(F)F)nc(c23)OCCC12CC2 [Example 42, 3-chloro-5-(4-fluoro-2-(((2R,7aS)-2-fluorotetrahydro-1H-pyrrolizin-7a(5H)-yl)methoxy)-11-(2-(methylamino)ethyl)-8,9-dihydro-11H-7-oxa-1,3,6,11-tetraazaspiro[cycloocta[de]naphthalene-10,1′-cyclopropan]-1(11a), 2,3a, 4,6-pentaen-5-yl)-4-(trifluoromethyl)aniline] | 141 | 0.17
